Here are results for two substances from US5859207A (priority 1996, dated 1999).

Data set [1] has as its system Human peripheral blood mononuclear cells (PBMC).
The test system is the same in data set [2]. The format is cell-based.
Data set [3] relates to human monocytes. In kind it is binding.

For staphylococcal enterotoxin A [SEA], in data set [1], the “concentration at which native SEA is effective (TNFα induction)” value lay in the range of 0.1 to 1 nM and the “cytotoxic activity neutralized by anti-TNFα antibody” value is reported as 63%. This substance also gave an IL-1 activity in data set [2] of 875±5 units/ml. The “inhibition of biotinylated SEA(121-149) binding to monocytes” value in data set [3] is listed as “specifically inhibited”.

As for toxic shock syndrome toxin one [TSST-1], in data set [1], the TNFα production is on record as 99 units/ml, the “TNFα production by monocytes depleted of T cells” value is “approximately 25 units TNFα/ml”, the “cytotoxic activity neutralized by anti-TNFα antibody” value came out at 76% and the “induction of TNFα production (in words)” value is reported as “induced significant TNFα production”.
